Reference: paper PMC11274511, “Synthesis of Substituted 1,2,4-Triazole-3-Thione Nucleosides Using E. coli Purine Nucleoside Phosphorylase” (Biomolecules, 2024)
Like-named read-outs stand apart in the source and are kept apart here.

Experiments:
HSV-1/L2(TK+) = assay: microbe, parasite or virus in culture
Experimental: (§1) Herpes simplex virus type 1 (HSV-1) strain L2 was obtained from the State’s collection of viruses at FSBI «N. F. Gamaleya National Research Centre for Epidemiology and Microbiology, Russian Ministry of Health, Russia» («D. I. Ivanovsky Institute of Virology» subdivision).
(§2) Antiviral activity in vitro was measured by the method of the cytopathic effect (CPE) inhibition assay. In 96-well plastic plates with the 24 h generated cell monolayer, 2-fold serial dilutions of the compounds were prepared. Cells infected with MOI of 0.1 PFU/cell were incubated at 37 °C in 5% CO2 atmosphere. […] Antiviral activity was assessed by determining of IC50 and IC95.
(§3) Three controls were used: (1) Toxicity control. Uninfected cells were incubated in the presence of the drug in the same concentration range as in the experiment. (2) Virus control. […] (3) Cell control. Uninfected cell cultures were incubated in the maintenance medium, which contained no drug.

HSV-1/L2/R^ACV = assay: microbe, parasite or virus in culture
Experimental: as §1, §2, §3

[1] = Cytotoxicity, trypan blue exclusion method; details: African green monkey
Experimental: (§4) Cytotoxicity was determined quantitatively by the trypan blue exclusion method. […] Negative control wells contained cells with maintenance medium.
(§5) After 72 h of cell culture incubation in the presence of a compound at a known concentration, the culture medium was harvested, the cells were treated with Versene solution, and suspended in the previously removed support medium. The resulting cell suspension was combined with 1% trypan blue solution in a ratio of 1:1. The number of live and stained cells was determined using a Goryaev camera (Minimed, Bryansk, Russia).

[2] = target: T1, E. coli purine nucleoside phosphorylase (PNP) (Escherichia coli, UniProt P0ABP8); assay: Test reaction for 2-deoxyriboside synthesis (substrate test, HPLC); type: biochemical; details: for Deoxyriboside Content, % 1 h / Deoxyriboside Content, % 24 h: 1 mM base, 2 mM 2′-deoxyuridine, 10 mM KH2PO4, pH 7.0, 5.6 units PNP, 1.7 units UP, 50 °C; for Substrate of E. coli PNP (product formation according to HPLC): test reaction with 2′-deoxyuridine, PNP and UP
T1 construct: made in house; host or cells: E. coli ER2566
T1 sequence (P0ABP8 2-239): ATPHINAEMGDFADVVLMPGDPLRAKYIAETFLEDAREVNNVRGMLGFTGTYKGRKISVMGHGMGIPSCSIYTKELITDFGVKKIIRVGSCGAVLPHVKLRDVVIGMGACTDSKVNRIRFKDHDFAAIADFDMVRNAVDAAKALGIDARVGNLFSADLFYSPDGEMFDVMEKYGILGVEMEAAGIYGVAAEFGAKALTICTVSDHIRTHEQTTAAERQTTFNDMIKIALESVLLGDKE
Experimental: Each reaction mixture (0.25 mL, pH 7.0) contained 1 mM of the tested heterocyclic base, 2 mM 2′-deoxyuridine, 10 mM KH2PO4, and Escherichia coli purine nucleoside phosphorylase (5.6 units) and uridine phosphorylase (1.7 units). An activity unit is the amount (in µmol) of natural product (hypoxanthine or uracil) formed per minute. The reaction mixtures were incubated at 50 °C. Substrate and product quantities were determined using HPLC.
The test reactions contained the tested heterocyclic base, 2′-deoxyuridine, and both enzymes (PNP and UP).

Vero E6 cells = assay: Cytotoxicity, trypan blue exclusion method; details: for Reduction of cytotoxicity compared to base 7: ribosylation / deoxyribosylation of base 7
Experimental: as §4, §5

AURORA-A = tested on: AURORA-A; design: method as in earlier work; details: cited from earlier work
FLT-3 = tested on: FLT-3; design: method as in earlier work; details: cited from earlier work
c-TAK1 = tested on: c-TAK1; design: method as in earlier work; details: cited from earlier work
[3] = Human alphaherpesvirus 1, Vero C1008, 48 h
[4] = Human alphaherpesvirus 1, Vero C1008, 48 h, Strain HSV-1/L2(TK+), Vero E6, MOI 0.1 PFU/cell, 48 h
[5] = Vero E6 cells, CC50, Vero E6 cells, 72 h, trypan blue
[6] = Strain HSV-1/L2(TK+), Vero E6, MOI 0.1 PFU/cell, 48 h
[7] = Strain HSV-1/L2/R^ACV, Vero E6, MOI 0.1 PFU/cell, 48 h
[8] = Vero E6 cells, 72 h, trypan blue

Compound | IC95 (HSV-1/L2(TK+); [3]) | IC50 (HSV-1/L2(TK+); [4]) | SI (ratio of CC50 to IC50) (HSV-1/L2(TK+); Strain HSV-1/L2(TK+)) | IC50 (HSV-1/L2/R^ACV; [3]) | IC95 (HSV-1/L2/R^ACV; [3]) | SI (ratio of CC50 to IC50) (HSV-1/L2/R^ACV; Strain HSV-1/L2/R^ACV) | CC50 at 72 h [1, 5] | Deoxyriboside Content, % 1 h [2] | Deoxyriboside Content, % 24 h [2] | Substrate of E. coli PNP (product formation according to HPLC) [2] | IC50 (HSV-1/L2(TK+); [6]) | further results
O=C(CSc1nc(-c2ccccc2)nn1[C@H]1C[C@H](O)[C@@H](CO)O1)c1ccccc1 [Compound 11, 1-(2-Deoxy-β-D-ribofuranosyl)-5-phenacylthio-3-phenyl-1,2,4-triazole] | 149 ± 5.1 µM | 149 ± 5.1 µM | 2 | 149 ± 5.1 µM | 149 ± 5.1 µM | 2 | 244 ± 6.2 µM | – | – | – | – | –
O=C(CSc1nnc[nH]1)c1ccccc1 [Compound 5, 3-Phenacylthio-1,2,4-triazole] | 2280 ± 20.5 µM | 570.1 ± 5.1 µM | 6 | 570.1 ± 5.1 µM | 2280 ± 20.5 µM | 6 | 3346 ± 26.5 µM | 94% | 25% | product’s formation was observed | – | –
5-Phenyl-1,2,4-triazole-3-thione [Compound 4] | – | – | – | – | – | – | – | 0% | 0% | did not prove to be substrates | 2821 ± 25.4 µM | IC95 (HSV-1/L2(TK+); [6]): >5642.4 µM; IC50 (HSV-1/L2/R^ACV; [7]): 2821 ± 25.4 µM; IC95 (HSV-1/L2/R^ACV; [7]): >5642.4 µM; CC50 (Vero E6 cells): > 5640 µM; CC50 (Vero E6 cells; [8]): > 5640 µM
O=C(CSc1nc(-c2ccccc2)nn1[C@@H]1O[C@H](CO)[C@@H](O)[C@H]1O)c1ccccc1 [Compound 10, 5-Phenacylthio-3-phenyl-1-(β-D-ribofuranosyl)-1,2,4-triazole] | 305 ± 8.8 µM | 152 ± 4.4 µM | 3 | 305 ± 8.8 µM | 305 ± 8.8 µM | 2 | 480 ± 6.2 µM | – | – | – | – | –
NC(=O)c1ncn([C@@H]2O[C@H](CO)[C@@H](O)[C@H]2O)n1 [Ribavirin, reference compound] | > 2050 µM | 512 ± 20 µM | – | 1020 ± 39.9 µM | > 2050 µM | – | – | – | – | – | – | CC50 at 72 h [1]: > 2050 µM
1,2,4-Triazole-3-thione [Compound 3] | – | – | 3 | – | – | 3 | – | 0% | 0% | did not prove to be substrates | 618 ± 3.7 µM | IC95 (HSV-1/L2(TK+); [6]): >1236.0 µM; IC50 (HSV-1/L2/R^ACV; [7]): 618 ± 3.7 µM; IC95 (HSV-1/L2/R^ACV; [7]): >1236.0 µM; CC50 (Vero E6 cells): 1885.7 ± 1.7 µM
O=C(CSc1ncn([C@@H]2O[C@H](CO)[C@@H](O)[C@H]2O)n1)c1ccccc1 [Compound 8, 3-Phenacylthio-1-(β-D-ribofuranosyl)-1,2,4-triazole] | 1520 ± 45.8 µM | 379 ± 11.4 µM | >8 | 379 ± 11.4 µM | 3030 ± 91.5 µM | >8 | > 3030 µM | – | – | – | – | –
CCCCSc1n[nH]c(-c2ccccc2)n1 [Compound 7, 3-Butylthio-5-phenyl-1,2,4-triazole] | > 67 µM | 33.5 µM | 3 | 67 ± 0.8 µM | > 67 µM | 1 | 91.1 µM | 62% | 41% | product’s formation was observed | 33.5 ± 0.4 µM | Increase of toxicity compared to base 4 (Vero E6 cells; CC50 91.07 vs. 5642.39 µM): 62 fold; CC50 (Vero E6 cells; [8]): 91.1 ± 0.7 µM; Activity against kinase AURORA-A (AURORA-A): active; Activity against kinase FLT-3 (FLT-3): active; Activity against kinase c-TAK1 (c-TAK1): active
CCCCSc1nc(-c2ccccc2)nn1[C@@H]1O[C@H](CO)[C@@H](O)[C@H]1O [Compound 12, 5-Butylthio-3-phenyl-1-(β-D-ribofuranosyl)-1,2,4-triazole] | 375 ± 6.4 µM | 188 ± 3.2 µM | 4 | 188 ± 3.2 µM | 375 ± 6.4 µM | 4 | 657 µM | – | – | – | – | Decrease of antiviral activity compared to base 7 (HSV-1/L2(TK+); IC50 based): 6 fold; CC50 (Vero E6 cells; [8]): 658 ± 13.9 µM; Reduction of cytotoxicity compared to base 7 (Vero E6 cells): more than 7 times
O=C(CSc1ncn([C@H]2C[C@H](O)[C@@H](CO)O2)n1)c1ccccc1 [Compound 9, 1-(2-Deoxy-β-D-ribofuranosyl)-3-phenacylthio-1,2,4-triazole] | 835 ± 51.8 µM | 418 ± 25.9 µM | 2 | 418 ± 25.9 µM | 835 ± 51.8 µM | 2 | 920 ± 77.2 µM | – | – | – | – | –
CCCCSc1nc(-c2ccccc2)nn1[C@H]1C[C@H](O)[C@@H](CO)O1 [Compound 13, 5-Butylthio-1-(2-deoxy-β-D-ribofuranosyl)-3-phenyl-1,2,4-triazole] | 93.8 ± 2.4 µM | 23.4 µM | 16 | 46.9 ± 1.2 µM | 93.8 ± 2.4 µM | 8 | 364 ± 6 µM | – | – | – | 23.4 ± 0.6 µM | Reduction of cytotoxicity compared to base 7 (Vero E6 cells): 4 times
